Experimental data as given in patent US20260223845A1, “METHOD FOR PRODUCING TRYPTOPHAN DECOMPOSITION PRODUCT, METHOD FOR PRODUCING FORMYLKYNURENINE, METHOD FOR PRODUCING KYNURENINE, METHOD FOR PRODUCING TRYPTOPHAN RADICAL-CONTAINING AQUEOUS SOLUTION, AND BACTERICIDAL AQUEOUS SOLUTION” (NATIONAL UNIVERSITY CORPORATION TOKAI NATIONAL HIGHER …, priority 2023, published 2026).
Read-outs that look alike come from different tables or passages of the source.

How the values were obtained:
[1] = tested on: Escherichia coli; test: Bactericidal effect test of redissolved HPLC fractions on Escherichia coli suspension, colony counting method; type: cell-based; conditions: component redissolved in ultrapure water, liquid temperature 24° C., mixed with Escherichia coli suspension, counted after 10 minutes; FIG. 5
Description: Each aqueous solution (liquid temperature: 24° C.) prepared by redissolving each component in ultrapure water was mixed with a suspension of Escherichia coli, and after 10 minutes, the viable cell count of Escherichia coli was measured by a colony counting method. The viable cell count of Escherichia coli was also measured in the same manner for the oxygen radical-unirradiated aqueous solution.

[2] = Bactericidal effect of oxygen radical-irradiated tryptophan-containing aqueous solution (previous research of the inventors; inference in Experimental Examples 1 to 3); type: cell-based; conditions: inferred from inactive FKYN, KYN, L-Trp fractions and ESR detection of Trp⋅
From the text: Therefore, in this experimental example, an attempt was made to detect Trp⋅ by electron spin resonance (ESR) spectroscopy.
Here, as shown in FIG. 12 (b), it is known that Trp. is generated by the reaction between Trp and OH⋅. […] In the formulae in FIG. 12(b), X is indicated because it is thought that OH extracts H from Trp and X becomes H2O, but what is actually formed has not been accurately confirmed at this stage.
From the above-described Experimental Examples 1 to 3, it was confirmed that the substances primarily generated by irradiating the tryptophan-containing aqueous solution with oxygen radicals are FKYN and KYN. In addition, Trp⋅, considered to be a precursor of FKYN and KYN, was detected by ESR measurement from the oxygen radical-irradiated aqueous solution. Based on the above, it is considered that short-lived precursors of FKYN and KYN (Trp⋅ and Trp peroxide) are also expressed in large quantities by the oxygen radical irradiation in terms of total generation concentration, and it can be said that the above-described precursors are bactericidal substances.

[3] = maintaining a temperature of 15° C. or lower; cited from earlier work
[4] = Lifespan of tryptophan radical in aqueous solution; type: physicochemical; conditions: in oxygen radical-irradiated aqueous solution
From the text: The precursor generated from Trp may be composed solely of Trp⋅, may be composed solely of Trp peroxide, or may include both Trp⋅ and Trp peroxide. […] Trp⋅ can be detected by electron spin resonance (ESR) spectroscopy. FKYN is generated by cleavage of a pyrrole ring in Trp peroxide. This cleavage occurs naturally in an aqueous solution. In other words, Trp peroxide decomposes on its own. Furthermore, since the generation of FKYN has been confirmed in the present disclosure, it is inferred that Trp peroxide is also generated, despite having a short lifespan. KYN is generated by the decomposition of FKYN.

For `Nc1ccccc1C(=O)CC(N)C(=O)O` (stereo not drawn) [component P2, kynurenine], the “bactericidal effect (viable cell count of Escherichia coli)” value [1] was “not bactericidal substances”.

For tryptophan radical [Trp⋅], the bactericidal effect [2] is listed as “has a bactericidal effect”, the lifespan [3] is listed as “can be extended” and the lifespan [4] is listed as “short-lived substance”.

For `NC(CC(=O)c1ccccc1NC=O)C(=O)O` (stereo not drawn) [component P1, formylkynurenine], the “bactericidal effect (viable cell count of Escherichia coli)” value [1] was “not bactericidal substances”.

With `N[C@@H](Cc1c[nH]c2ccccc12)C(=O)O` [L-Trp, L-tryptophan] the “bactericidal effect (viable cell count of Escherichia coli)” value [1] was “not bactericidal substances”.
